Among the data in patent US8822520B2, “Substituted bicyclic HCV inhibitors” (Presidio Pharmaceuticals, Inc., priority 2010, dated 2014) are EC50 values, retold here.

The test system of one assay is HCV genotype 1b replicon in Huh 7 cells (HCV 1b_Huh-Luc/Neo-ET cell line). In words: HCV replicon assay (luciferase readout). Particulars: Hepatitis C virus, Huh-7, 72 h, read-out: Inhibition of HCV genotype lb. In kind it is cell-based. As for the experimental part: Biological activity of the compounds of the invention was determined using an HCV replicon assay. The HCV 1b_Huh-Luc/Neo-ET cell line persistently expressing a bicistronic genotype 1b replicon in Huh 7 cells was obtained from ReBLikon GMBH. This cell line was used to test compound inhibition using luciferase enzyme activity readout as a measurement of compound inhibition of replicon levels.
On Day 1 (the day after plating cells), each compound is added in triplicate to the cells. Plates are incubated for 72 h prior to determining luciferase levels. Enzyme activity was measured using a Bright-Glo Kit (cat. number E2620) manufactured by Promega Corporation. The following equation was used to generate a percent control value for each compound. % Control=(Compound Luciferase Level/Control Luciferase Level)*100
The EC50 value was determined using GraphPad Prism and the following equation: Y=Bottom asymptote+(Top asymptote−Bottom asymptote)/(1+10^((Log EC50−X)*HillSlope))
EC50 values of compounds are determined several times in the replicon assay to generate average EC50 values.
Regarding `COCCOc1cc(-c2cnc([C@@H]3CCCN3C(=O)[C@@H](NC(=O)OC)C(C)C)[nH]2)ccc1-c1ccc(-c2cnc([C@@H]3CCCN3C(=O)[C@@H](NC(=O)OC)C(C)C)[nH]2)c(OCCOC)c1` [Compound 51], the EC50 is less than 1 nM.

As for `COCCOc1cc(-c2cnc([C@@H]3CCCN3C(=O)[C@@H](NC(=O)OC)C(C)C)[nH]2)ccc1-c1ccc(-c2cnc([C@@H]3CCCN3C(=O)[C@@H](NC(=O)OC)C(C)C)[nH]2)cc1` [Compound 52], the EC50 is less than 1 nM.

Consider `COCCOc1cc(-c2ccc(-c3cnc([C@@H]4CCCN4C(=O)[C@@H](NC(=O)OC)C(C)C)[nH]3)cc2)ccc1-c1cnc([C@@H]2CCCN2C(=O)[C@@H](NC(=O)OC)C(C)C)[nH]1` [Compound 53], for which the EC50 was less than 1 nM.

As for `COCCOc1cc(-c2ccc(-c3cnc([C@@H]4CCCN4C(=O)[C@@H](NC(=O)OC)C(C)C)[nH]3)c(OCCOC)c2)ccc1-c1cnc([C@@H]2CCCN2C(=O)[C@@H](NC(=O)OC)C(C)C)[nH]1` [Compound 54], the EC50 lay within 1 to 9.9 nM.

In the case of `COCCOc1cc(-c2cnc([C@@H]3CCCN3C(=O)[C@@H](NC(=O)OC)C(C)C)[nH]2)c(OCCOC)cc1-c1ccc(-c2cnc([C@@H]3CCCN3C(=O)[C@@H](NC(=O)OC)C(C)C)[nH]2)cc1` [Compound 55], the EC50 was less than 1 nM.

For `COCCOc1c(-c2ccc(-c3cnc([C@@H]4C[C@@H](O)CN4C(=O)[C@@H](NC(=O)OC)C(C)C)[nH]3)cc2)ccc(-c2cnc([C@@H]3CCCN3C(=O)[C@@H](NC(=O)OC)C(C)C)[nH]2)c1OCCOC` [Compound 60], the EC50 was less than 1 nM.

Consider `COCCOc1cc(-c2cnc([C@@H]3CCCN3C(=O)[C@H](COC)NC(=O)OC)[nH]2)ccc1-c1ccc(-c2cnc([C@@H]3CCCN3C(=O)[C@H](COC)NC(=O)OC)[nH]2)cc1OCCOC` [Compound 75], for which the EC50 was 1 to 9.9 nM.

Consider `COCCOc1cc(-c2cnc([C@@H]3CCCN3C(=O)[C@@H](NC(=O)OC)C(C)(C)C)[nH]2)ccc1-c1ccc(-c2cnc([C@@H]3CCCN3C(=O)[C@@H](NC(=O)OC)C(C)(C)C)[nH]2)cc1OCCOC` [Compound 76], for which the EC50 is less than 1 nM.

As to `COCCOc1cc(-c2cnc([C@@H]3CCCN3C(=O)[C@@H](NC(=O)OC)C3CCOCC3)[nH]2)ccc1-c1ccc(-c2cnc([C@@H]3CCCN3C(=O)[C@@H](NC(=O)OC)C3CCOCC3)[nH]2)cc1OCCOC` [Compound 77], the EC50 lay within 1 to 9.9 nM.

Take `COCCOc1cc(-c2cnc([C@@H]3CCCN3C(=O)[C@H](NC(=O)OC)c3ccsc3)[nH]2)ccc1-c1ccc(-c2cnc([C@@H]3CCCN3C(=O)[C@H](NC(=O)OC)c3ccsc3)[nH]2)cc1OCCOC` [Compound 78]: the EC50 lay within 1 to 9.9 nM.

For the compound `COCCOc1cc(-c2cnc([C@@H]3CCCN3C(=O)[C@H](NC(=O)OC)c3cccs3)[nH]2)ccc1-c1ccc(-c2cnc([C@@H]3CCCN3C(=O)[C@H](NC(=O)OC)c3cccs3)[nH]2)cc1OCCOC` [Compound 79], the EC50 was less than 1 nM.

In the case of `COC(=O)N[C@H](C(=O)N1CCC[C@H]1c1ncc(-c2ccc(-c3ccc(-c4cnc([C@@H]5CCCN5C(=O)[C@@H](NC(=O)OC)C(C)C)[nH]4)c4c3OCCOCCOCCO4)cc2)[nH]1)C(C)C` [Compound 80], the EC50 was less than 1 nM.

Regarding `COCCOc1cc(-c2cnc([C@@H]3CCCN3C(=O)[C@@H](c3ccccc3)N(C)C)[nH]2)ccc1-c1ccc(-c2cnc([C@@H]3CCCN3C(=O)[C@@H](c3ccccc3)N(C)C)[nH]2)cc1OCCOC` [Compound 81], the EC50 is 1 to 9.9 nM.

For the compound `COCCOc1cc(-c2cnc([C@@H]3CCCN3C(=O)[C@@H](c3ccccc3)N3CCCC3)[nH]2)ccc1-c1ccc(-c2cnc([C@@H]3CCCN3C(=O)[C@@H](c3ccccc3)N3CCCC3)[nH]2)cc1OCCOC` [Compound 82], the EC50 fell in the range of 1 to 9.9 nM.

For the compound `COCCOc1cc(-c2cnc([C@@H]3CCCN3C(=O)[C@H](NC(C)=O)c3ccccc3)[nH]2)ccc1-c1ccc(-c2cnc([C@@H]3CCCN3C(=O)[C@H](NC(C)=O)c3ccccc3)[nH]2)cc1OCCOC` [Compound 83], the EC50 was in the range of 1 to 9.9 nM.

For `COCCOc1cc(-c2cnc([C@@H]3CCCN3C(=O)[C@H](NS(C)(=O)=O)c3ccccc3)[nH]2)ccc1-c1ccc(-c2cnc([C@@H]3CCCN3C(=O)[C@H](NS(C)(=O)=O)c3ccccc3)[nH]2)cc1OCCOC` [Compound 84], the EC50 was 1 to 9.9 nM.

With `CNC(=O)N[C@@H](C(=O)N1CCC[C@H]1c1ncc(-c2ccc(-c3ccc(-c4cnc([C@@H]5CCCN5C(=O)[C@H](NC(=O)NC)c5ccccc5)[nH]4)cc3OCCOC)c(OCCOC)c2)[nH]1)c1ccccc1` [Compound 85], the EC50 lay within 1 to 9.9 nM.

For `COCCOc1cc(-c2cnc([C@@H]3CCCN3C(=O)[C@H](C)NC(=O)OC)[nH]2)ccc1-c1ccc(-c2cnc([C@@H]3CCCN3C(=O)[C@@H](NC(=O)OC)C(C)C)[nH]2)cc1OCCOC` [Compound 86], the EC50 was 1 to 9.9 nM.

As to `COCCOc1cc(-c2cnc([C@@H]3CCCN3C(=O)[C@H](COC)NC(=O)OC)[nH]2)ccc1-c1ccc(-c2cnc([C@@H]3CCCN3C(=O)[C@@H](NC(=O)OC)C(C)C)[nH]2)cc1OCCOC` [Compound 87], the EC50 is 1 to 9.9 nM.

Regarding `COCCOc1cc(-c2cnc([C@@H]3CCCN3C(=O)[C@@H](NC(=O)OC)C(C)C)[nH]2)ccc1-c1ccc(-c2cnc([C@@H]3CCCN3C(=O)[C@H](NC(=O)OC)c3ccsc3)[nH]2)cc1OCCOC` [Compound 88], the EC50 is less than 1 nM.

Take `COCCOc1cc(-c2cnc([C@@H]3CCCN3C(=O)[C@@H](NC(=O)OC)C(C)C)[nH]2)ccc1-c1ccc(-c2cnc([C@@H]3CCCN3C(=O)[C@H](NC(=O)OC)c3cccs3)[nH]2)cc1OCCOC` [Compound 89]: the EC50 was less than 1 nM.

For `COCCOc1cc(-c2cnc([C@@H]3CCCN3C(=O)[C@@H](NC(=O)OC)C(C)C)[nH]2)ccc1-c1ccc(-c2cnc([C@@H]3CCCN3C(=O)[C@@H](c3ccccc3)N(C)C)[nH]2)cc1OCCOC` [Compound 90], the EC50 lay in the range of 1 to 9.9 nM.

As to `COCCOc1c(-c2ccc(-c3cnc([C@@H]4CCCCN4C(=O)[C@@H](NC(=O)OC)C(C)C)[nH]3)cc2)ccc(-c2cnc([C@@H]3CCCCN3C(=O)[C@@H](NC(=O)OC)C(C)C)[nH]2)c1OCCOC` [Compound 91], the EC50 fell in the range of 1 to 9.9 nM.

As to `COCCOc1cc(-c2cnc([C@@H]3CCCN3C(=O)[C@@H](NC(=O)OC)C(C)C)[nH]2)cc(OCCOC)c1-c1ccc(-c2cnc([C@@H]3CCCN3C(=O)[C@@H](NC(=O)OC)C(C)C)[nH]2)cc1` [Compound 92], the EC50 was less than 1 nM.

Still in this assay, the particulars now being: Hepatitis C virus, Huh-7; Table 1; EC50 range class; replicon luciferase, 72 h incubation, average EC50; read-out: Inhibition of HCV genotype 1b.
As for `COCCOc1c(-c2ccc(-c3cnc([C@H](C)NC(=O)[C@@H](NC(=O)OC)C(C)C)[nH]3)cc2)ccc(-c2cnc([C@@H]3CCCN3C(=O)[C@@H](NC(=O)OC)C(C)C)[nH]2)c1OCCOC` [Compound 39], the EC50 was 1 to 9.9 nM.

As to `COCCOc1c(-c2ccc(-c3cnc([C@@H]4COCCN4C(=O)[C@@H](NC(=O)OC)C(C)C)[nH]3)cc2)ccc(-c2cnc([C@@H]3CCCN3C(=O)[C@@H](NC(=O)OC)C(C)C)[nH]2)c1OCCOC` [Compound 40], the EC50 was 1 to 9.9 nM.

In the case of `COCCOc1c(-c2ccc(-c3cnc([C@@H]4CSCN4C(=O)[C@@H](NC(=O)OC)C(C)C)[nH]3)cc2)ccc(-c2cnc([C@@H]3CCCN3C(=O)[C@@H](NC(=O)OC)C(C)C)[nH]2)c1OCCOC` [Compound 41], the EC50 lay within 1 to 9.9 nM.

On to `COC(=O)N[C@H](C(=O)N1CCC[C@H]1c1ncc(-c2ccc3cc2OCCOCCOCCOCCOCCOc2cc-3ccc2-c2cnc([C@@H]3CCCN3C(=O)[C@@H](NC(=O)OC)C(C)C)[nH]2)[nH]1)C(C)C` [Compound 42], for which the EC50 is 1 to 9.9 nM.

For `COC(=O)N[C@H](C(=O)N1CCC[C@H]1c1ncc(-c2ccc3c(c2)OCCOCCOCCOCCOCCOc2cc-3ccc2-c2cnc([C@@H]3CCCN3C(=O)[C@@H](NC(=O)OC)C(C)C)[nH]2)[nH]1)C(C)C` [Compound 43], the EC50 was in the range of 1 to 9.9 nM.

Regarding `COC(=O)N[C@H](C(=O)N1CCC[C@H]1c1ncc(-c2ccc3c(c2)OCCOCCOCCOc2cc(-c4cnc([C@@H]5CCCN5C(=O)[C@@H](NC(=O)OC)C(C)C)[nH]4)ccc2-3)[nH]1)C(C)C` [Compound 44], the EC50 lay within 1 to 9.9 nM.

Take `COCCOc1c(-c2ccc(-c3cnc([C@@H]4CCCN4C(=O)[C@@H](NC(=O)OC)C(C)C)[nH]3)cc2)ccc(-c2cnc([C@@H]3CCCN3C(=O)[C@@H](c3ccccc3)N3CCCC3)[nH]2)c1OCCOC` [Compound 45]: the EC50 was less than 1 nM.
